According to patent publication US9434725B2, “5-azaindazole compounds and methods of use” (priority 2012, dated 2016):
Counter-ions that a name gives are not always drawn. Like-named read-outs stand apart in the source and are kept apart here.

Columns and labels:
PIM1 = PIM1 (Homo sapiens (Human), UniProt P11309); assay: biochemical; type: biochemical; settings: 10 μM ATP, 90 min, room temperature; read-out: PIM1 LC3K (KI)
Outline: (§1)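 Pim-specific fluorescent peptide phosphorylated in 10 mM HEPES pH 7.2, 10 mM MgCl2, 0.01% Tween 20, 2 mM DTT for 90 min at room temperature, then stopped with EDTA. Product and substrate separated by microfluidic mobility shift; Ki derived from substrate conversion.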

PIM2 = PIM2 (Homo sapiens (Human), UniProt Q9P1W9); assay: Pim kinase binding activity, Caliper LC3000 microfluidic peptide phosphorylation assay, PIM2; type: biochemical; settings: 10 μM ATP, 90 min, room temperature; read-out: PIM2 LC3K (KI)
Outline: as §1

PIM3 = PIM3 (Homo sapiens (Human), UniProt Q86V86); assay: Pim kinase binding activity, Caliper LC3000 microfluidic peptide phosphorylation assay, PIM3; type: biochemical; settings: 10 μM ATP, 90 min, room temperature; read-out: PIM3 LC3K (KI)
Outline: as §1

BaF3 PIM1 cells = assay: In vitro cell proliferation potency assay (Cell Titer Glo), BaF3 PIM1 cells; type: cell-based, murine; settings: read-out: Prolif BaF3_PIM 1 (IC50)
[1] = test system: MM1.S (multiple myeloma) cells; assay: In vitro cell proliferation potency assay (Cell Titer Glo), MM1.S cells; type: cell-based; settings: Homo sapiens, read-out: Prolif MM1S ATP (EC50)
Experimental: BaF3 parental line was obtained from the DSMZ repository. BaF3 lines transfected with PIM1 or PIM2 were generated. Mouse IL-3 was purchased from R&D Systems. G418 was purchased from Clontech. Media for BaF3 parental line contained RPMI, 10% FBS, 2 mM L-Glutamine, 2 ng/mL mIL-3. Media for BaF3 PIM1 & 2 lines contained RPMI, 10% FBS, 2 mM L-Glutamine, […]. Media for MM1.S (multiple myeloma cells) line contained RPMI, 10% FBS, 2 mM L-Glutamine.
BaF3, a murine interleukin-3 dependent pro-B cell line, parental cells, BaF3 PIM1 cells, BaF3 PIM2 cells, and MM1.S (multiple myeloma) cells were seeded at 2 k/well, 5 k/well, 5 k/well, and 10 k/well respectively, in a 384-well plate, at 45 μL/well. Test compound was added at 5 μL/well. BaF3 cells (parental and transfected) were incubated overnight, while MM1.S cells were incubated for 72 hours at 37° C., 5% CO2. CELL TITER GLO® Reagent (Promega) was added at 50 μL/well, the plates were incubated for 30 minutes, and their luminescence read on an HT Analyst. IC50/EC50 values for the test compound were calculated.

[2] = Mus musculus, BaF3, BaF3 cells transfected with PIM1, incubated overnight
[3] = MM1.S, 72 h, MM1.S cells, 72 hours

Sequence of PIM2 (Q9P1W9 whole entry): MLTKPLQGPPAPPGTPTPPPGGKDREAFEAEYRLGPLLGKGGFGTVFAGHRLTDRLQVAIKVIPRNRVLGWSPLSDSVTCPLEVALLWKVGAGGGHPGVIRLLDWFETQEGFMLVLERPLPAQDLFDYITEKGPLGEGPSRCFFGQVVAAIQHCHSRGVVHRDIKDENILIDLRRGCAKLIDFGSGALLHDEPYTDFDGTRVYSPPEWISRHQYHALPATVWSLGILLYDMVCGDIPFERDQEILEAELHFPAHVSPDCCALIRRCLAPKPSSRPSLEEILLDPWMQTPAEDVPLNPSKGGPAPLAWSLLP
Sequence of PIM1 (P11309 whole entry): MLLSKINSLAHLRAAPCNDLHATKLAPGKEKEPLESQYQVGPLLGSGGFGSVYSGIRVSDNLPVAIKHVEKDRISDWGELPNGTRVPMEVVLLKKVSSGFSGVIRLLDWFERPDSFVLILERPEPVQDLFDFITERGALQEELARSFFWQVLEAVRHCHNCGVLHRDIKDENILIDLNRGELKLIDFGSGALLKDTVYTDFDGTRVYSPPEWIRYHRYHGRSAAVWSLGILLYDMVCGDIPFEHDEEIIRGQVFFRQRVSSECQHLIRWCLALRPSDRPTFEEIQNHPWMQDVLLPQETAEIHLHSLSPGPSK

Ki (PIM1) [nM] | Ki (PIM2) [nM] | Ki (PIM3) [nM] | IC50 (BaF3 PIM1 cells; [2]) [nM] | EC50 ([1]; MM1.S cells, 72 hours) [nM] | IC50 (BaF3 PIM1 cells; BaF3 cells transfected with PIM1, incubated overnight) [nM] | EC50 [1, 3] [nM] | Structure (SMILES) | EC50 ([1]; MM1.S, 72 h) [nM]
0.048 | 3.37 | 0.064 | 695 |  |  | 16000 | OC1CN(c2cncc(-c3cc4c(cn3)cnn4-c3cccc(N4CCNCC4)n3)n2)C1 [Compound 281, 1-(6-(1-(6-(piperazin-1-yl)pyridin-2-yl)-1H-pyrazolo[4,3-c]pyridin-6-yl)pyrazin-2-yl)azetidin-3-ol] | 
0.256 | 1.43 | 0.144 | 425 | 10900 |  |  | COC1(c2cccc(-n3ncc4cnc(-c5cncc(C)n5)cc43)n2)CCCNC1 (stereo not drawn) [Compound 295, 1-(6-(3-methoxypiperidin-3-yl)pyridin-2-yl)-6-(6-methylpyrazin-2-yl)-1H-pyrazolo[4,3-c]pyridine] | 
0.034 | 0.446 | 0.018 | 781 | 4000 |  |  | OCCCc1cncc(-c2cc3c(cn2)cnn3-c2cccc(N3CCNCC3)n2)n1 [Compound 301, 3-(6-(1-(6-(piperazin-1-yl)pyridin-2-yl)-1H-pyrazolo[4,3-c]pyridin-6-yl)pyrazin-2-yl)propan-1-ol] | 
0.094 | 0.744 | 0.07 | 255 | 1200 |  |  | N[C@H]1CCC[C@@H]1Oc1cncc(-c2cc3c(cn2)cnn3-c2ccccn2)n1 [Compound 304, (1S,2S)-2-(6-(1-(pyridin-2-yl)-1H-pyrazolo[4,3-c]pyridin-6-yl)pyrazin-2-yloxy)cyclopentanamine] | 
0.12 | 2.97 | 0.098 | 640 |  |  | 2900 | N[C@H]1CCC[C@@H]1Nc1cncc(-c2cc3c(cn2)cnn3-c2ccccn2)n1 [Compound 307, (1S,2S)-N1-(6-(1-(pyridin-2-yl)-1H-pyrazolo[4,3-c]pyridin-6-yl)pyrazin-2-yl)cyclopentane-1,2-diamine] | 

The next lines start with the compound.

Structure (SMILES) | Ki (PIM1) [nM] | Ki (PIM2) [nM] | Ki (PIM3) [nM] | IC50 (BaF3 PIM1 cells; [2]) [nM] | EC50 ([1]; MM1.S cells, 72 hours) [nM] | IC50 (BaF3 PIM1 cells; BaF3 cells transfected with PIM1, incubated overnight) [nM] | EC50 [1, 3] [nM] | EC50 ([1]; MM1.S, 72 h) [nM]
Cc1cncc(-c2cc3c(cn2)cnn3-c2ccc(C#N)c(N3CCC[C@H](N)C3)n2)n1 [Compound 201, (S)-2-(3-aminopiperidin-1-yl)-6-(6-(6-methylpyrazin-2-yl)-1H-pyrazolo[4,3-c]pyridin-1-yl)nicotinonitrile] | 0.068 | 0.286 | 0.02 | 490 | 1100 |  |  | 
OCCOc1cncc(-c2cc3c(cn2)cnn3-c2cccc(N3CCNCC3)n2)n1 [Compound 278, 2-((6-(1-(6-(piperazin-1-yl)pyridin-2-yl)-1H-pyrazolo[4,3-c]pyridin-6-yl)pyrazin-2-yl)oxy)ethanol dihydrochloride] | 0.163 | 2.62 | 0.105 | 261 |  |  |  | > 6200
Cc1ccc(-n2ncc3cnc(-c4cnn(CC(F)(F)F)c4)cc32)nc1N1CCNC[C@@H](O)C1 (single isomer, unassigned) [Compound 260] | 0.047 | 1.54 | 0.127 | 380 |  |  |  | 852
FC(F)c1cncc(-c2cc3c(cn2)cnn3-c2cccc(N3CCNCC3)n2)n1 [Compound 279, 6-(6-(difluoromethyl)pyrazin-2-yl)-1-(6-(piperazin-1-yl)pyridin-2-yl)-1H-pyrazolo[4,3-c]pyridine trifluoroacetate] | 0.229 | 3.99 | 0.132 | 622 | 2300 |  |  | 
Cc1cncc(-c2cc3c(cn2)cnn3-c2ccc(CO)c(N3CCC[C@H](N)C3)n2)n1 [Compound 218, (S)-(2-(3-aminopiperidin-1-yl)-6-(6-(6-methylpyrazin-2-yl)-1H-pyrazolo[4,3-c]pyridin-1-yl)pyridin-3-yl)methanol] | 0.06 | 0.394 | 0.054 | 212 | 574 |  |  | 
c1cc(N2CCCNCC2)nc(-n2ncc3cnc(-c4cnn(C5CCC5)c4)cc32)c1 [Compound 147, 1-(6-(1,4-Diazepan-1-yl)pyridin-2-yl)-6-(1-cyclobutyl-1H-pyrazol-4-yl)-1H-pyrazolo[4,3-c]pyridine] | 0.213 | 3.92 | 0.259 | 869 | 2700 |  |  | 
c1cc(N2CCCNCC2)nc(-n2ncc3cnc(-c4cnn(C5CC5)c4)cc32)c1 [Compound 174, 1-(6-(1,4-Diazepan-1-yl)pyridin-2-yl)-6-(1-cyclopropyl-1H-pyrazol-4-yl)-1H-pyrazolo[4,3-c]pyridine] | 0.069 | 0.978 | 0.079 | 271 | 3100 |  |  | 
Cc1cncc(-c2cc3c(cn2)cnn3-c2cccc(N3CCNC(C)C3)n2)n1 (single isomer, unassigned) [Compound 185, 1-[6-(3-methylpiperazin-1-yl)-2-pyridyl]-6-(6-methylpyrazin-2-yl)pyrazolo[4,3-c]pyridine] | 0.06 | 0.54 | 0.022 |  | 4800 | 400 |  | 
C=Cc1cncc(-c2cc3c(cn2)cnn3-c2cccc(N3CCNCC3)n2)n1 [Compound 274, 1-(6-(piperazin-1-yl)pyridin-2-yl)-6-(6-vinylpyrazin-2-yl)-1H-pyrazolo[4,3-c]pyridine dihydrochloride] | 0.133 | 4.26 | 0.098 | 749 |  |  |  | 5100
Cc1cncc(-c2cc3c(cn2)cnn3-c2ccc(C)c(N3CCC[C@H](N)C3)n2)n1 [Compound 205, (S)-1-(3-methyl-6-(6-(6-methylpyrazin-2-yl)-1H-pyrazolo[4,3-c]pyridin-1-yl)pyridin-2-yl)piperidin-3-amine] | 0.018 | 0.142 | 0.014 | 278 |  |  | 1200 | 
CS(=O)(=O)CCn1cc(-c2cc3c(cn2)cnn3-c2cccc(N3CCCNCC3)n2)cn1 [Compound 157, 1-(6-(1,4-Diazepan-1-yl)pyridin-2-yl)-6-(1-(2-(methylsulfonyl)ethyl)-1H-pyrazol-4-yl)-1H-pyrazolo[4,3-c]pyridine] | 0.087 | 6.2 | 0.055 | 2800 |  |  | 4000 | 
CCc1cncc(-c2cc3c(cn2)cnn3-c2cccc(N3CCNCC3)n2)n1 [Compound 149, 6-(6-ethylpyrazin-2-yl)-1-(6-piperazin-1-yl-2-pyridyl)pyrazolo[4,3-c]pyridine] | 0.058 | 0.678 | 0.048 | 240 |  |  | 4700 | 
CC(C)n1cc(-c2cc3c(cn2)cnn3-c2cccc(N3CCCNCC3)n2)cn1 [Compound 146, 1-(6-(1,4-Diazepan-1-yl)pyridin-2-yl)-6-(1-isopropyl-1H-pyrazol-4-yl)-1H-pyrazolo[4,3-c]pyridine] | 0.532 | 7.81 | 0.656 | 797 | 4300 |  |  | 
